Some results are limits rather than exact numbers.

The subject of this assay is Mycobacterium tuberculosis replicating, CFU count, imaging. Description: M. tuberculosis CFU reduction, CFU imaging, dry powder, dose response (AID 743485).
For `Cn1c(NC(=O)c2ccccc2)nc2c3cnccc3ccc21`, the AC90 is less than 8 µM.
The value for `Cn1c(NC(=O)c2ccccc2)nc2c3nccnc3ccc21` was less than 16 µM; that for `Cn1c(NC(=O)c2ccccc2)nc2c3ncccc3ccc21` was less than 8 µM.
The result for `Cn1c(NC(=O)c2ccccc2)nc2c3ccncc3ccc21` reads less than 8 µM.

Source of the values: PubChem BioAssay AID743485 (Broad Institute, 2014).
